Type in all cases: cell-based
The subject of test [1] is neuron inside a human midbrain-like organoid. Kind of test: Whole cell patch clamp recording of spontaneous postsynaptic currents in hMLO neurons. The conditions noted are these: for spontaneous excitatory postsynaptic currents (sEPSCs): neuron inside hMLO at day 80, CNQX and AP5 applied together (FIG. 4F, recording 2). The protocol:
Whole cell patch clamp recording techniques were used to measure the intrinsic properties of neurons within human midbrain-like organoids. Each human midbrain-like organoid was placed in a chamber and submerged beneath continuously perfused artificial CSF (aCSF) saturated with 95% O2 and 5% CO2 at 30 to 32° C. Patch pipettes (2 to 4 MΩ) were filled with an intracellular solution containing (in mM): Potassium methanesulfonate 135, KCl 10, HEPES 10, EGTA 1 Na2ATP 2; 290 mOsm; pH was adjusted to between 7.2 to 7.4 with KOH. Whole cell recordings were performed using IR-DIC visualization techniques with an Olympus BX51WI upright microscope, using a ×60 water immersion lens. Signals were recorded using an MultiClamp 700B amplifier, filtered at 3 kHz using a Bessel filter, and digitized at 10 kHz with a Digidata 1322A analog-to-digital (A/D) board (Molecular Devices, Sunnyvale, CA). To measure Na^+ currents and K^+ currents, voltage steps (500 msec duration) were applied from a holding potential of −70 mV to a range of test potentials between −50 and +90 mV (10 mV increments). For excitability test, a series of current pulses (500 msec) of increasing amplitude (5 pA steps) were injected to make the current-firing frequency relationship. Spontaneous excitatory postsynaptic currents (sEPSCs) were collected at a holding potential of −70 mV. Evoked excitatory postsynaptic currents (eEPSCs) was induced by tungsten wire electrodes placed about 300 μm away from the recording neuron within the hMLO.
In general terms: The patch-clamp technique gives a direct electrical read-out from membranes.

In test [2] the test system is human midbrain-like organoids (hMLOs). Kind of test: Neuromelanin-like granule formation in human midbrain-like organoids (bright field, Fontana-Masson staining). Particulars: for formation of neuromelanin-like granules: 50 μM treatment, bright field images and Fontana-Masson stained sections (FIG. 3G).
Protocol: For generation of human midbrain-like organoids, human embryonic stem cell lines were used at less than 40 passages. The human embryonic stem cells were dissociated from intact colonies to single cells with TrypLE Express (Life Technologies), and 10,000 cells were plated in each well of low-cell-adhesion 96-well culture plate with V-bottomed conical wells (Sumitomo Bakelite) to form uniform EBs in neuronal induction medium containing DMEM/F12:Neurobasal (1:1), 1:100 N2 supplement (Invitrogen), 1:50 B27 without vitamin A (Invitrogen), 1% GlutaMAX (Invitrogen), 1% minimum essential media-nonessential amino acid (Invitrogen), and 0.1% β-mercaptoethanol (Invitrogen) supplemented with 1 μg/ml Heparin (Sigma-Aldrich), 10 μM SB431542 (Stemgent), 200 ng/ml Noggin (Prospec), 0.8 μM CHIR99021 (Reagents Direct), and 10 μM ROCK inhibitor Y27632 (Calbiochem). ROCK inhibitor was added for the first 48 hours and neuronal induction medium was changed on day 2. On day 4, human midbrain-like organoids were cultured with addition of 100 ng/ml SHH-C25II (R&D Systems) and 100 ng/ml FGF8 (R&D Systems) for midbrain patterning. After 3 days, the human midbrain-like organoids started to extrude neuroectodermal buds, media were completely removed and immediately 30 μl of growth factor reduced matrigel was added in each well by pipetting using pre-chilled 200 μl pipette tip. The matrigel embedded midbrain-like organoid was placed into 37° C. incubator for 30 minutes to allow the matrigel to solidify, and was grown in tissue growth induction medium containing Neurobasal, 1:100 N2 supplement (Invitrogen), 1:50 B27 without vitamin A (Invitrogen), 1% GlutaMAX (Invitrogen), 1% minimum essential media-nonessential amino acid (Invitrogen), and 0.1% β-mercaptoethanol (Invitrogen) supplemented with 2.5 μg/ml Insulin (Sigma-Aldrich), 200 ng/ml Laminin (Sigma-Aldrich), 100 ng/ml SHH-C25II (R&D Systems), and 100 ng/ml FGF8 (R&D Systems) for 24 h. […]
For test [3], the system named is human cerebral organoids (hCOs). Nature of the test: Neuromelanin-like granule formation in human cerebral organoids. The conditions noted are these: 50 μM for 10 days; human cerebral organoids (FIG. 7G).
Protocol: Human midbrain-like organoids were fixed in 4% paraformaldehyde (PFA) overnight, washed in PBS, embedded in paraffin block, and subsequently sectioned at 4 μm thickness. Next, hMLOsections were deparaffinized, hydrated with distilled water, and stained by Fontana-Masson staining kit (Abcam) according to manufacturer's protocol ([…] et al., 2011). Briefly, the sections were placed in ammoniacal silver solution and incubated in a 58 to 60° C. water bath for 30 to 60 minutes until the tissue sections had become yellowish/brown in colour. The tissue sections were washed with distilled water and incubated in gold chloride solution (0.2%) for 30 seconds. Next, the sections were incubated in gold chloride solution (0.2%) for 30 seconds and subsequently incubated with sodium thiosulfate solution (5%) for 2 minutes. Finally, the sections were incubated in nuclear fast red solution for 5 minutes for staining and mounting. Images were taken on an LSM710 confocal microscope or an Observer Z. 1 inverted microscope (Zeiss).

As for `NC(CCCP(=O)(O)O)C(=O)O` (stereo not shown) [AP5], the “spontaneous excitatory postsynaptic currents (sEPSCs)” value in test [1] is listed as “blocked”. `N#Cc1cc2[nH]c(=O)c(=O)[nH]c2cc1[N+](=O)[O-]` [CNQX]: in test [1], the “spontaneous excitatory postsynaptic currents (sEPSCs)” value is recorded as “blocked”. As for `N[C@@H](Cc1ccc(O)c(O)c1)C(=O)O` [L-DOPA, L-3,4-dihydroxyphenylalanine], the “formation of neuromelanin-like granules” value in test [2] is reported as “accelerated”. Besides, the “distribution of neuromelanin-like granules” value in test [2] (L-DOPA 50 μM, hMLO at day 35, untreated hMLO at the same day showed none) is “robust distribution of neuromelanin-like granules was observed”. Besides, the “neuromelanin (NM)-like granules or coloured deposits” value in test [3] was “did not show any neuromelanin (NM)-like granules”.

As to `NCCc1ccc(O)c(O)c1` [dopamine, 3,4-dihydroxyphenethylamine], in test [2], the “formation of neuromelanin-like granules” value was “accelerated”. On to picrotoxin, for which the “spontaneous inhibitory postsynaptic currents (sIPSCs)” value in test [1] (neuron inside hMLO at day 80 (FIG. 4F, recording 3)) is reported as “blocked”.

(Values after patent publication US12428623B2, “Generation of midbrain-specific organoids from human pluripotent stem cells” (AGENCY FOR SCIENCE, TECHNOLOGY AND RESEARCH, priority 2016, dated 2025).)
